Assay [1] relates to APEC O18. The experiment in a line: Antimicrobial susceptibility profile, CAMHB micro-dilution (CLSI). The assay is classed as cell-based, avian pathogenic Escherichia coli (APEC). The conditions noted are these: (R) = resistant. On the technique in general: Dilution methods test growth across graded concentrations, often in twofold steps.
Assay [2] deals with APEC O35. The assay is described as above. The assay is classed as cell-based, avian pathogenic Escherichia coli (APEC). As to conditions: (R) = resistant.
In assay [3] the test system is APEC O78. The description is as above. In kind it is cell-based, avian pathogenic Escherichia coli (APEC). The conditions noted are these: (R) = resistant.
The test system of assay [4] is APEC O2-211. Described as above. In kind it is cell-based, avian pathogenic Escherichia coli (APEC). As to conditions: APEC O2-211, CAMHB micro-dilution; (R) = resistant.
The subject of assay [5] is APEC O1-63. The assay is described as above. In kind it is cell-based, avian pathogenic Escherichia coli (APEC). As to conditions: APEC O1-63, CAMHB micro-dilution; (R) = resistant.
The subject of assay [6] is APEC O8. The assay is described as above. The assay is classed as cell-based, avian pathogenic Escherichia coli (APEC). As to conditions: (R) = resistant.
In assay [7] the test system is APEC O1. The assay is described as above. In kind it is cell-based, avian pathogenic Escherichia coli (APEC). As to conditions: (R) = resistant.
Assay [8] has as its system APEC O109. Described as above. The assay is classed as cell-based, avian pathogenic Escherichia coli (APEC). The conditions noted are these: (R) = resistant.
Assay [9] relates to APEC O115. Described as above. The conditions noted are these: (R) = resistant. The assay is classed as cell-based, avian pathogenic Escherichia coli (APEC).
Assay [10] has as its system APEC O78-53. The assay is described as above. As to conditions: APEC O78-53, CAMHB micro-dilution; (R) = resistant. In kind it is cell-based, avian pathogenic Escherichia coli (APEC).
Assay [11] has as its system APEC O2. The description is as above. The assay is classed as cell-based, avian pathogenic Escherichia coli (APEC). The conditions noted are these: (R) = resistant.
Assay [12] has as its system APEC O15. The assay is described as above. The assay is classed as cell-based, avian pathogenic Escherichia coli (APEC). The conditions noted are these: (R) = resistant.
Assay [13] has as its system biofilm embedded APEC O78. Briefly: MBEC High-throughput assay. The assay is classed as cell-based, avian pathogenic Escherichia coli (APEC). The conditions noted are these: biofilm embedded APEC O78; superscript = multiple of MIC (footnote).
Assay [14] concerns APEC O78. The experiment in a line: Confocal microscopy bacterial cytological profiling. As to conditions: 2X MBC. The assay is classed as cell-based, avian pathogenic Escherichia coli (APEC). As to the method:
Confocal and scanning electron microscopy. Confocal microscopy was used for bacterial cytological profiling (BCP) to identify the cellular pathways targeted by SMs as described previously. […] After incubation, treated cultures were centrifuged, washed, and resuspended in 100 μL PBS. […] Cultures were then centrifuged, washed, and resuspended in PBS to 1⁄10th volume of the original cultures.

In assay [15] the test system is APEC O2. The assay is classed as cell-based, avian pathogenic Escherichia coli (APEC). As to conditions: APEC O2, M63 media; MIC/MBC.
Assay [16] deals with intracellular APEC O78 in HD11 cells. The experiment in a line: Intracellular survival assay (cidal SMs). As to conditions: O78, HD11, 6 h treatment; superscript = multiple of MIC.
The test system of assay [17] is Rif^r APEC O78. Briefly: In vivo efficacy of growth inhibitors in APEC infected broiler chickens.
In assay [18] the test system is intracellular APEC O1 in HD11 cells. Briefly: Intracellular survival assay (cidal SMs). The conditions noted are these: O1, HD11, 6 h treatment; superscript = multiple of MIC.
Assay [19] deals with intracellular APEC O78 in Caco-2 cells. Briefly: Intracellular survival assay (cidal SMs). The conditions noted are these: O78, Caco-2, 6 h treatment; superscript = multiple of MIC.
In assay [20] the test system is intracellular APEC O2 in THP-1 cells. Briefly: Intracellular survival assay (cidal SMs). As to conditions: O2, THP-1, 6 h treatment; superscript = multiple of MIC.
Assay [21] relates to APEC O15. In kind it is cell-based, avian pathogenic Escherichia coli (APEC). As to conditions: APEC O15, M63 media; MIC/MBC.
Assay [22] deals with APEC O78. Briefly: Loss of 260/280 nm absorbing materials assay. The assay is classed as cell-based, avian pathogenic Escherichia coli (APEC). The conditions noted are these: 2X MBC, 1 h, *P<0.05 vs DMSO.
Assay [23] relates to intracellular APEC O1 in THP-1 cells. The experiment in a line: Intracellular survival assay (cidal SMs). The conditions noted are these: O1, THP-1, 6 h treatment; superscript = multiple of MIC.
Assay [24] concerns intracellular APEC O78 in THP-1 cells. The experiment in a line: Intracellular survival assay (cidal SMs). The conditions noted are these: O78, THP-1, 6 h treatment; superscript = multiple of MIC.
For assay [25], the system named is APEC O35. The assay is classed as cell-based, avian pathogenic Escherichia coli (APEC). The conditions noted are these: APEC O35, M63 media; MIC/MBC.
The subject of assay [26] is APEC O18. The assay is classed as cell-based, avian pathogenic Escherichia coli (APEC). The conditions noted are these: APEC O18, M63 media; MIC/MBC.
Assay [27] relates to Shiga toxin-producing (STEC) O157 and O26 strains. In kind it is cell-based, E. coli. The conditions noted are these: 100 µM, M63 media.
Assay [28] has as its system APEC O78-53. In kind it is cell-based, avian pathogenic Escherichia coli (APEC). The conditions noted are these: APEC O78-53, M63 media; MIC/MBC.
The subject of assay [29] is APEC O1. The assay is classed as cell-based, avian pathogenic Escherichia coli (APEC). The conditions noted are these: APEC O1, M63 media; MIC/MBC.
Assay [30] has as its system intracellular APEC O1 in Caco-2 cells. The experiment in a line: Intracellular survival assay (cidal SMs). The conditions noted are these: O1, Caco-2, 6 h treatment; superscript = multiple of MIC.
Assay [31] has as its system APEC O115. In kind it is cell-based, avian pathogenic Escherichia coli (APEC). The conditions noted are these: APEC O115, M63 media; MIC/MBC.
In assay [32] the test system is APEC O78. The assay is classed as cell-based, avian pathogenic Escherichia coli (APEC).
Assay [33] deals with APEC O2-211. The assay is classed as cell-based, avian pathogenic Escherichia coli (APEC). The conditions noted are these: APEC O2-211, M63 media; MIC/MBC.
In assay [34] the test system is intracellular APEC O2 in HD11 cells. Briefly: Intracellular survival assay (cidal SMs). The conditions noted are these: O2, HD11, 6 h treatment; superscript = multiple of MIC.
Assay [35] concerns APEC O109. The assay is classed as cell-based, avian pathogenic Escherichia coli (APEC). The conditions noted are these: APEC O109, M63 media; MIC/MBC.
The subject of assay [36] is APEC O8. The assay is classed as cell-based, avian pathogenic Escherichia coli (APEC). As to conditions: APEC O8, M63 media; MIC/MBC.
Assay [37] concerns APEC O1-63. In kind it is cell-based, avian pathogenic Escherichia coli (APEC). The conditions noted are these: APEC O1-63, M63 media; MIC/MBC.
The subject of assay [38] is intracellular APEC O2 in Caco-2 cells. Briefly: Intracellular survival assay (cidal SMs). The conditions noted are these: O2, Caco-2, 6 h treatment; superscript = multiple of MIC.
Where [39] appears, read: APEC O78, M63 media, cell prints MIC/MBC, listed as 1.

The text below walks through data of patent publication US20230355597A1, “COMPOUNDS, COMPOSITIONS, AND METHODS FOR THE TREATMENT AND PREVENTION OF AVIAN PATHOGENIC E. COLI (APEC)” (OHIO STATE INNOVATION FOUNDATION, priority 2018, published 2023).

The MBC is the lowest tested concentration that kills the bacteria rather than only halting them. High values mean weaker bactericidal potency, low ones greater bactericidal potency.

In brackets after ≈: the same amount, converted by molar mass. Where two headings read alike, the source gives them in different places. Marks after values point to notes of the source that are not given here.

As to `CN(C)[C@@H]1C(=O)C(C(N)=O)=C(O)[C@@]2(O)C(=O)C3=C(O)c4c(O)cccc4[C@@](C)(O)[C@H]3C[C@@H]12` [Tetracycline], the MIC is reported as 2 µg/mL (≈ 4.5 µM) in [1]; 1 µg/mL (≈ 2.25 µM) in assay [2]; 32 (R) µg/mL in [3]; >64 (R) µg/mL in [4]; 16 (R) µg/mL in assay [5]; >64 (R) µg/mL in [6]. Also, the MIC in assay [7] is >64 (R) µg/mL; in assay [8], 1 µg/mL (≈ 2.25 µM); in assay [9], >64 (R) µg/mL; in [10], >64 (R) µg/mL; in assay [11] it was >64 (R) µg/mL; in assay [12], >64 (R) µg/mL.
Colistin: the MIC is reported as 1 µg/mL in [1]; 1 µg/mL in [2]; 0.25 µg/mL in assay [3]; 4 (R) µg/mL in [4]; 4 (R) µg/mL in [5]; 1 µg/mL in assay [6]. Also, the MIC in assay [7] came to 0.5 µg/mL; in assay [8] it was 0.5 µg/mL; in [9], 1 µg/mL; in assay [10], 0.5 µg/mL; in assay [11], 0.5 µg/mL; in assay [12] it was 1 µg/mL.
For `CC1(C)S[C@@H]2[C@H](NC(=O)[C@H](N)c3ccccc3)C(=O)N2[C@H]1C(=O)O` [Ampicillin], the MIC is reported as 4 µg/mL (≈ 11.4 µM) in assay [1]; 2 µg/mL (≈ 5.72 µM) in [2]; >64 (R) µg/mL in assay [3]; 4 µg/mL (≈ 11.4 µM) in [4]; 4 µg/mL (≈ 11.4 µM) in assay [5]; 4 µg/mL (≈ 11.4 µM) in [6]. In addition, the MIC is >64 (R) µg/mL in assay [7]; >64 (R) µg/mL in assay [8]; >64 (R) µg/mL in assay [9]; 4 µg/mL (≈ 11.4 µM) in [10]; >64 (R) µg/mL in [11]; 2 µg/mL (≈ 5.72 µM) in [12].
With `CC1CCCN(CCC(=O)c2ccc(Br)cc2)C1.Cl` (centres unmarked) [SM1], the MBEC in assay [13] is recorded as 400^d µM. Also, the “cytological profile (confocal, FM4-64 / SYTO-9)” value in assay [14] is given as “PG synthesis inhibitors”. The MBC is 200 µM in assay [15]; 250 µM in assay [21]; 200 µM in [25]; 200 µM in assay [26]; 200 µM in [28]; 250 µM in assay [29]. Besides, the MBC in assay [31] was 200 µM; in [32] (APEC O78, M63 media, cell prints MIC/MBC) it was 200 µM; in assay [32] (setting [39]) it was 200 µM; in assay [33] it was 200 µM; in assay [35], 200 µM; in assay [36], 200 µM. In addition, the MBC in assay [37] is recorded as 250 µM. Moreover, the MIC in assay [15], in [21], in assay [25], in [26], in assay [28] and in assay [29] was 200 µM in each case. The MIC in [31], in assay [32] (setting [39]), in assay [33], in [35], in assay [36] and in assay [37] was 200 µM in each case. Further, the “SMs intracellular APEC clearance concentration” value in [16] is given as 200^a µM; in [18] it was 400^b µM; in assay [19], 200^a µM; in [20] it was 200^a µM; in [23] it was 400^b µM; in assay [24], 200^a µM. In addition, the “SMs intracellular APEC clearance concentration” value in assay [30] is above 400 µM; in assay [34], 200^a µM; in [38], above 400 µM. In addition, in assay [17] (average of liver, heart, lung and kidney, vs untreated control), the “reduction of average APEC load in internal organs” value is recorded as “either exacerbated or did not reduce”. Moreover, the “reduction of APEC induced mortality” value in assay [17] (oral gavage twice a day, 5 days, untreated mortality (58.34%) normalized to 100%) turned out to be 14.28%. Besides, the “reduction of APEC lesions severity (%), Air-sacs (airsacculitis)” value in assay [17] (untreated control = 100%) is -5.9%. For the same compound, the “reduction of APEC lesions severity (%), Heart (pericarditis)” value in assay [17] (untreated control = 100%) came out at 33.3%. Also, the “reduction of APEC lesions severity (%), Liver (perihepatitis)” value in assay [17] (untreated control = 100%) is on record as -20%. In addition, the “reduction of APEC load, Heart” value in [17] (vs untreated control) is -1.8 log CFU/g of tissues. Moreover, the “reduction of APEC load, Kidney” value in assay [17] (vs untreated control) is listed as -1.1 log CFU/g of tissues. Further, in assay [17] (vs untreated control), the “reduction of APEC load, Liver” value is -2.0 log CFU/g of tissues. Moreover, in assay [17] (vs untreated control), the “reduction of APEC load, Lung” value was -1.4 log CFU/g of tissues. Besides, the “Body weight gain (BWG)” value in [17] (weight of live chickens before necropsy minus weight before treatment) amounted to 165.62±69.17. Further, the “Absorbance 260” value in [22] (260 nm absorbing material in supernatant) is on record as 4.00*. Moreover, the “Absorbance 280” value in assay [22] (280 nm absorbing material in supernatant) is reported as 3.08*. In addition, the “activity against STEC O157 and O26 strains” value in [27] was “not cidal”. In addition, the “MBC relative to MIC” value in assay [32] (APEC O78) is on record as “identical to MIC”.
